According to patent US12208130B2, “Treatment of women affected with polycystic ovary syndrome” (INSTITUT NATIONAL DE LA SANTE ET DE LA RECHERCHE MEDICALE …, priority 2017, dated 2025):
Where a SMILES comes first, the peptide text is derived from it. [ ]: non-standard residue; d: D form. dPhe(4-Cl) = N[C@H](Cc1ccc(Cl)cc1)C(=O)O; d2Nal = N[C@H](Cc1ccc2ccccc2c1)C(=O)O; dCit = NC(=O)NCCC[C@@H](N)C(=O)O; d3Pal = N[C@H](Cc1cccnc1)C(=O)O

System: placenta
Assay: Quantitative RT-PCR of E19.5 placental tissue
Type: in vivo, mouse
Conditions: dams i.p. AMH + GnRH antag E16.5-E18.5; placenta E19.5
Procedure: PAMH+GnRH antag. (FIG. 3D) Schematic representation of tail-tip blood sampling in adult diestrus female mice (3-4 months old). (FIG. 3E) Tail blood was collected every 10 min for 2 h and LH measured from 10 a.m-12 p.m in adult (P60) diestrus females (Control, n=8; PAMH, n=10; PAMH+GnRH antag, n=9; One-way ANOVA and Tukey's multiple comparison post hoc test, F(2,24)=57.06, *P<0.05, ***P<0.0001). Bars from left to right: Control, PAMH, PAMH+GnRH antag. (FIGS. 2F-1, 2F-2, 2F-3) Representative graphs for LH pulsatility over 2-hr in one female adult (P60) mouse of each treatment. Asterisks in (FIG. 3F) indicate the number of LH pulses/2-hr. (FIG. 3G) Mean circulating testosterone and LH levels were analyzed in pregnant PBS-treated (n=4) and AMH-treated (n=4) dams at embryonic day (E) 19.5 of gestation. […] (FIG. 3H) Relative mRNA expression of placental Cyp191a (aromatase) in control (n=4) and AMH (n=4)-treated pregnant animals at E19.5. Cyp191a expression in the placenta is […] in AMH-treated pregnant dams as compared to control-treated pregnant dams (Unpaired Student's t-test, t(6)=5.414, **P<0.005). Values are expressed as relative to the mean of each treatment. All values are expressed as mean±s.e.m. (FIGS. 3I-1, 3I-2, 3I-3, 3I-4) Dams were injected from E16.5 to E18.5 with either PBS (vehicle, n=9-11), AMH (n=8-10), AMH+GnRH antag (n=5) and trunk blood was collected at E19.5 for hormonal measurements by ELISA. Data were combined from at least two independent experiments. In FIGS. 3I-1, 3I-2, 3I-3, 3I-4: left bar: vehicle; middle bar: AMH; right bar: AMH+GnRH antagonist. (FIGS. 3J-1, 3J-2, 3J-3, 3J-4)) Real-time PCR analysis of expression levels of AMHR2, CYP191A (cytochrome P450 family 19A1, aromatase), CYP11A1 (cytochrome P450 family 11A1), HSD3B1 (3beta-hydroxysteroid dehydrogenase/delta(5)-delta(4)isomerase type I or hydroxy-delta-5-steroid dehydrogenase) mRNA in the placenta of E19.5 dams. Dams were injected i.p. from E16.5 to E18.5 with either PBS (vehicle, n=8-17), AMH (n=7-11), or AMH+GnRH antag (n=8-13). Data were combined from three independent experiments. […] In FIGS. 3J-1, 3J-2, 3J-3, 3J-4: left bar: vehicle; middle bar: AMH; right bar: AMH+GnRH antagonist.
E19.5 placental tissue from female control and PAMH embryos was isolated for total RNA was using Trizol (ThermoFisher Scientific, Cat #15596026) and the RNeasy Lipid Tissue Mini Kit (Qiagen; Cat #74804) using the manufacturer's instructions. For gene expression analyses, mRNAs […] from E19.5 placental tissue were reverse transcribed using SuperScript® IV Reverse Transcriptase (Life Technologies). Real-time PCR was carried out on Applied Biosystems 7900HT Fast Real-Time PCR system using exon-boundary-specific TaqMan® Gene Expression Assays (Applied Biosystems): Amhr2 (AMHR2-Mm00513847_m1); Cyp19a1 (Cyp19a1-Mm00484049_m1); Cyp11a1 (Cyp11a1-Mm00490735_m1); HSD3b1 (Hsd3b1-Mm01261921_mH); GnRH (Gnrh-Mm01315604_m1); GnRH-R (Gnrhr-Mm00439143_m1); LH-R (Lhcgr-Mm00442931_m1). Control housekeeping genes: ActB (ActB-Mm00607939_s1); GAPDH (GAPDH-Mm99999915_g1).
Quantitative RT-PCR was performed using TaqMan® Low-Density Arrays (Applied Biosystems) on an Applied Biosystems thermocycler using the manufacturer's recommended cycling conditions. Gene expression data were analyzed using SDS 2.4.1 and Data Assist 3.01 software (Applied Biosystems), with ActB and GAPDH as control house-keeping mRNA following a standardized procedure. […]

CC(=O)N[C@H](Cc1ccc2ccccc2c1)C(=O)N[C@H](Cc1ccc(Cl)cc1)C(=O)N[C@H](Cc1cccnc1)C(=O)N[C@@H](CO)C(=O)N[C@@H](Cc1ccc(O)cc1)C(=O)N[C@H](CCCNC(N)=O)C(=O)N[C@@H](CC(C)C)C(=O)N[C@@H](CCCNC(=N)N)C(=O)N1CCC[C@H]1C(=O)N[C@H](C)C(N)=O [Cetrorelix acetate, Ac-D-2Nal-D-Phe(4-Cl)-D-3Pal-Ser-Tyr-D-Cit-Leu-Arg-Pro-D-Ala-NH2] (Ac-[d2Nal][dPhe(4-Cl)][d3Pal]SY[dCit]LRP[dA]-NH2)
AMH-driven downregulation of placental HSD3B1 gene expression: prevented the downregulation | AMH-driven inhibition of placental CYP19A1 mRNA: prevented | placental CYP11A1 expression: did not find any difference | placental LHR expression: normalized | placental expression of GnRH and GnRHR: unchanged
